Source: US7169424B2, “Mold inhibitor having reduced corrosiveness” (Kemin Industries, Inc., priority 2003, dated 2007)

Test: pH
Type: physicochemical
Conditions: free propionic acid, stated in the discussion

pH: less than 2
Structure (SMILES): CCC(=O)O [free propionic acid, propionic acid]
